This is an account of results in ChEMBL document CHEMBL4420060, “Combinatorial therapies for the treatment of neoplasias using the opioid growth factor receptor” (2013).

Molecules are shown by their SMILES. The source made the active and inactive calls. The calls are words filed in the database; no cut-off is given here.

Test [1] has as its system MIA PaCa-2. As to the kind of experiment: Antitumor activity against human MIAPaCa2 cells xenografted in athymic BALB/c nu/nu nude mouse assessed as tumor incidence at 120 mg/kg dosed every 3 days and co-treated with 10 mg/kg OGF and measured on day 16 after tumor cell inoculation. It counts as functional.
Test [2] has as its system MIA PaCa-2. The test is described as follows: Antitumor activity against human MIAPaCa2 cells xenografted in athymic BALB/c nu/nu nude mouse assessed as time delay in visible tumor development at 120 mg/kg dosed every 3 days and co-treated with 10 mg/kg OGF relative to control. It counts as functional. Background: Xenograft models place foreign cells or tissue in a host animal.

The test system of test [3] is UMSCC1. The test is described as follows: Antitumor activity against human UM-SCC-1 cells xenografted in nu/nu mouse assessed as latency time for measurable (62.5 mm3) tumors at 120 mg/kg dosed every 3 days (Rvb <=14 days). It counts as functional.
The test system of test [4] is MIA PaCa-2. As to the kind of experiment: Growth inhibition of human MIAPaCa2 cells assessed as decrease in cell number at 0.01 uM incubated for 72 hrs in presence of 1 uM OGF by MTS assay relative to control. It counts as functional.
Test [5] concerns MIA PaCa-2. The test is described as follows: Growth inhibition of human MIAPaCa2 cells assessed as decrease in cell number at 0.01 uM in presence of 1 uM OGF incubated for 48 hrs followed by compound wash out by 50% replacement of media and measured after 48 hrs by MTS assay relative to control. It counts as functional, cell-based. (Tetrazolium dyes change colour on reduction, which living cells bring about.)

In test [6] the test system is PANC-1. The test is described as follows: Growth inhibition of human PANC1 cells assessed as decrease in cell number at 0.01 uM incubated for 72 hrs by MTS assay relative to control. It counts as functional. To be noted: PANC-1, 72 h, read-out: GI.
In test [7] the test system is MIA PaCa-2. As to the kind of experiment: Antitumor activity against human MIAPaCa2 cells xenografted in athymic BALB/c nu/nu nude mouse assessed as reduction in tumor volume at 120 mg/kg dosed every 3 days and co-treated with 10 mg/kg OGF measured on day 45 after tumor cell inoculation. It counts as functional. Details: scale not given: the % may be the effect or the level left.

Test [8] relates to MIA PaCa-2. As to the kind of experiment: Antitumor activity against human MIAPaCa2 cells xenografted in athymic BALB/c nu/nu nude mouse assessed as latency time for visible tumor at 10 mg/kg dosed daily measured on day 10 after tumor cell inoculation (reference value: 10.1 +/- 1.8 days). It counts as functional.
In test [9] the test system is MIA PaCa-2. As to the kind of experiment: Antitumor activity against human MIAPaCa2 cells xenografted in athymic BALB/c nu/nu nude mouse assessed as latency time for visible tumor at 120 mg/kg dosed every 3 days and co-treated with 10 mg/kg OGF measured on day 10 after tumor cell inoculation (reference value: 10.1 +/- 1.8 days). It counts as functional.
For test [10], the system named is MIA PaCa-2. The test is described as follows: Antitumor activity against human MIAPaCa2 cells xenografted in athymic BALB/c nu/nu nude mouse assessed tumor weight at 120 mg/kg dosed every 3 days and co-treated with 10 mg/kg OGF measured on day 45 after tumor cell inoculation (reference value: 5.5 +/- 1 g). It counts as functional.

As to `Nc1ccn([C@@H]2O[C@H](CO)[C@@H](O)C2(F)F)c(=O)n1` [GEMCITABINE], the Activity was 0% in test [1], 83% in [7] and 0.8 g in test [10]. The Time is 6 days in test [2], “<=2 weeks” in test [3], 10.7 days in test [8] and 16.2 days in test [9]. Further, the “growth inhibition (GI)” value in test [4] was determined as 49%. Further, the “growth inhibition (GI)” value in [5] was “Active”. Also, the inhibition of growth at 0.01 µM in test [6] stood at 54%.
